Calls of active or inactive are those of the source.

The target of assay [1] is SWI/SNF-related matrix-associated actin-dependent regulator of chromatin subfamily A member 2 (Homo sapiens, UniProt P51531). The assay is described as follows: Luminescence-based cell-based high throughput dose response assay to identify activators of the function of SWI/SNF related, matrix associated, actin dependent regulator of chromatin, subfamily a, member 2 (SMARCA2, BRM). The class given is functional.

A short description of assay [2]: Counterscreen for activators of the function of SWI/SNF related, matrix associated, actin dependent regulator of chromatin, subfamily a, member 2 (SMARCA2, BRM): Luminescence-based cell-based high throughput dose response assay to identify non-selective compounds using the VP16 reporter assay. The class given is functional. In general terms: A counterscreen serves to expose hits that act by an unwanted route or on another target.

Assay [3] in a line: inhibitors of TNFa-stimulated NF-kB luciferase reporter, dose response, selectivity assay for EBV LMP1 NF-kB inhibitor project, HEK293 LMP1 reporter cells, dry powder, set 2 (AID 624369). The class given is functional. Background: A reporter such as luciferase makes a cellular process visible.
A short description of assay [4]: inhibitors of LMP1-driven NF-kB reporter, dose response, cell-based, EBV LMP1, luciferase, dry powder, set 2 (AID 624361). The class given is functional.
In assay [5] the target is T1, Beta-lactamase (Pseudomonas aeruginosa, UniProt Q79MP6). Briefly: IMP-1 metallo-beta-lactamase inhibitors, dose response, selectivity assay for VIM-2 inhibitor project, biochemical, epi-absorbance (AID 1920).
T1 sequence (Q79MP6 whole entry): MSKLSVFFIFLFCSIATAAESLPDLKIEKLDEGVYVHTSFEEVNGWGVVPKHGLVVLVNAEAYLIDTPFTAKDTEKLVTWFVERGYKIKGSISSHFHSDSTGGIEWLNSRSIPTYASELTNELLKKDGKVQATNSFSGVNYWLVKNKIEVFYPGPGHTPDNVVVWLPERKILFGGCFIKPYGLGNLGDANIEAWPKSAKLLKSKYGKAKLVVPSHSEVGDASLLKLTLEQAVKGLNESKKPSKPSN
In assay [6] the target is Beta-lactamase (Salmonella choleraesuis (strain SC-B67), UniProt Q5J463). Briefly: Epi-absorbance-based counterscreen for selective VIM-2 inhibitors: dose response biochemical high throughput screening assay to identify inhibitors of TEM-1 serine-beta-lactamase.
Beta-lactamase (Salmonella choleraesuis (strain SC-B67), UniProt Q5J463), sequence (Q5J463 whole entry): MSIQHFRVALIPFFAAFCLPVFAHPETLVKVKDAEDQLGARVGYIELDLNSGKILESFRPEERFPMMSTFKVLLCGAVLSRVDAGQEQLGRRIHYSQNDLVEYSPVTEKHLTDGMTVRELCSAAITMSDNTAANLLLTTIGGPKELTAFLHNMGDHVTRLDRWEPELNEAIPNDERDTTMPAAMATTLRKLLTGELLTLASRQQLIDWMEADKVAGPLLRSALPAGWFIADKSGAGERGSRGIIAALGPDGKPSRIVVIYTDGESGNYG
For assay [7], the target named is T1, Beta-lactamase. The assay is described as follows: […] counterscreen for selective VIM-2 inhibitors: dose response biochemical high throughput screening assay to identify inhibitors of IMP-1 metallo-beta-lactamase.
The nature of assay [8]: ARNT/TACC3 interaction disruptors, potency, confirmation, biochemical, AlphaScreen, cherry-picked samples (AID 651703).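 Note: His-tagged ARNT PAS-B domain paired with GST-TACC3 E629A dimer coactivator fragment; potency of inhibitors that break up the complex and lower AlphaScreen signal.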 The class given is functional, Homo sapiens. (Alpha assays give light when donor and acceptor beads are brought close together.)
Assay [9] addresses Voltage-dependent T-type calcium channel subunit alpha-1H (Homo sapiens, UniProt O95180). The class given is functional.
For assay [10], the target named is T2, Rac GTPase-activating protein 1 (Homo sapiens, UniProt Q9H0H5).
T2 sequence (Q9H0H5 whole entry): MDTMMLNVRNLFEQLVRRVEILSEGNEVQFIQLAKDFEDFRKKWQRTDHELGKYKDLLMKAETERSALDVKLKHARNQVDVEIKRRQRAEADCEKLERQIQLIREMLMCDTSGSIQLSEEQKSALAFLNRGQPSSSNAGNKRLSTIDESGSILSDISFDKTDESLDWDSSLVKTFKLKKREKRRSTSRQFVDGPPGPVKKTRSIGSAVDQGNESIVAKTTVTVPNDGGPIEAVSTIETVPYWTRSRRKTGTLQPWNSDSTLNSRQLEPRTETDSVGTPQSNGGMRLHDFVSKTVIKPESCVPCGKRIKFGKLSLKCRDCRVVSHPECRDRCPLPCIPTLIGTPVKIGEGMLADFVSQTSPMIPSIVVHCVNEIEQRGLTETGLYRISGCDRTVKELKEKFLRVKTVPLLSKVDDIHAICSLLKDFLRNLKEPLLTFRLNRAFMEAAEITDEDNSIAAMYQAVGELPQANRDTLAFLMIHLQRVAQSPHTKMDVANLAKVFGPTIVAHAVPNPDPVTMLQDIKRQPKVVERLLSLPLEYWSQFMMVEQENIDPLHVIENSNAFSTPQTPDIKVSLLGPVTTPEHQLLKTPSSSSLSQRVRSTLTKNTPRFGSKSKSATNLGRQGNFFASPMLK
Briefly: MgcRacGAP GTPase-activating activity inhibitors, confirmation, biochemical, ADP Hunter fluorescence, primary and confirmatory (AID 624330). The class given is functional.

Assay [11] can be described thus: HeLa cell cytotoxicity, dose response, cytotoxicity control for MgcRacGAP inhibitor project (AID 624300). The class given is functional.
For assay [12], the target named is Matrix metalloproteinase-14 (Homo sapiens, UniProt P50281). Briefly: Dose Response confirmation of uHTS hits for a small molecule inhibitors of MT1-MMP activation in a fluorescence assay set 1. The class given is functional.
The target in assay [13] is T3, Small ubiquitin-related modifier 1 (Homo sapiens, UniProt P63165). Briefly: inhibitors of SUMO1 partner interactions, dose response, biochemical, FRET (AID 624383). The class given is functional. As to conditions: read-out: IC50_Mean.
T3 sequence (P63165 whole entry): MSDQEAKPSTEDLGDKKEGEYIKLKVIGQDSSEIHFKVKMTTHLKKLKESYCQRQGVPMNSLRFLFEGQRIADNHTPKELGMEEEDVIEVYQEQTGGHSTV
The target in assay [14] is T3, Small ubiquitin-related modifier 1. The assay is described as follows: inhibitors of SUMO1 peptide binding, dose response, biochemical, fluorescence polarization, uHTS hits (AID 624382). The class given is functional. Conditions: read-out: IC50_Mean.

SWI/SNF-related matrix-associated actin-dependent regulator of chromatin subfamily A member 2, sequence (P51531 whole entry): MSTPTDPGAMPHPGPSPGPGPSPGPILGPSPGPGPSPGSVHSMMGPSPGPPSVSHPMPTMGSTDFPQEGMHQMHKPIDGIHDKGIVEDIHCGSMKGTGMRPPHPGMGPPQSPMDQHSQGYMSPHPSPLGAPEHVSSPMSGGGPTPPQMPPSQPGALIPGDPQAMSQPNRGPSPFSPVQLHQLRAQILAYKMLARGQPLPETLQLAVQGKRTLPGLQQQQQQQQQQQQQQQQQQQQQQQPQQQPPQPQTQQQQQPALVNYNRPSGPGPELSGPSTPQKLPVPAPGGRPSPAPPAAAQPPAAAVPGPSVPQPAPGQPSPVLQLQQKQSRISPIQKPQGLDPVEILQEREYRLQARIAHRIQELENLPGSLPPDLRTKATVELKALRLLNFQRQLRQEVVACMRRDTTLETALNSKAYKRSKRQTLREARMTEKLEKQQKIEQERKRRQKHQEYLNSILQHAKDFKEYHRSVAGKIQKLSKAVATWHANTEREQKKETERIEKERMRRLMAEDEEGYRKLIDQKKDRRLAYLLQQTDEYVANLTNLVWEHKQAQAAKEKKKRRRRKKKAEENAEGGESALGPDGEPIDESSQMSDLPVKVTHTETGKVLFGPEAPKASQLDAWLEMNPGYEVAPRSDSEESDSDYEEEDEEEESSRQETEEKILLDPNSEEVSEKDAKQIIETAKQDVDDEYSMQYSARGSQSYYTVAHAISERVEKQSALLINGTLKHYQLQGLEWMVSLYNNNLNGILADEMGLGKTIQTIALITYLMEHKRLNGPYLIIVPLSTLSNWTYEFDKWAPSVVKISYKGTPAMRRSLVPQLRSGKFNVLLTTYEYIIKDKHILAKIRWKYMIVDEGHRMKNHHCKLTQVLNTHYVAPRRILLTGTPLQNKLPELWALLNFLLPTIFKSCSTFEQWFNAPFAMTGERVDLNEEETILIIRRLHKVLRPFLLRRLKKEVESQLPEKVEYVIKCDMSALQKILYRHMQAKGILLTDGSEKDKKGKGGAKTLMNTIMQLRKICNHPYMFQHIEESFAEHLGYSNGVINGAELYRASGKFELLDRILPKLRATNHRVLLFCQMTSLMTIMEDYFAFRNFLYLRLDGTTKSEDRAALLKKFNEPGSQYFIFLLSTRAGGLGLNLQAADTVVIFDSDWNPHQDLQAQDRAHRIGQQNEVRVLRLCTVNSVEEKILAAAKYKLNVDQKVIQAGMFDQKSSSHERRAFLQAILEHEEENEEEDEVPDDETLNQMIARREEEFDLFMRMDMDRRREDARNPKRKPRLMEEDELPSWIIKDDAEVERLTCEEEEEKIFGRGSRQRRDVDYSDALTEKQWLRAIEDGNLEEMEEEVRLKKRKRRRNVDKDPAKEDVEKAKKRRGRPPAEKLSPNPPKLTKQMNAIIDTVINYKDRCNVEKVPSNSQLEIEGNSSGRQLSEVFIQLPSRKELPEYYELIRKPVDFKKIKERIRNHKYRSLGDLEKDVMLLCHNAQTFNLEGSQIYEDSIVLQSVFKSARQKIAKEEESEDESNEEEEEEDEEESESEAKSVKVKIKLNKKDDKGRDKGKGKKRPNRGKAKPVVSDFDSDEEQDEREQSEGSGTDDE
Voltage-dependent T-type calcium channel subunit alpha-1H, sequence (O95180 whole entry): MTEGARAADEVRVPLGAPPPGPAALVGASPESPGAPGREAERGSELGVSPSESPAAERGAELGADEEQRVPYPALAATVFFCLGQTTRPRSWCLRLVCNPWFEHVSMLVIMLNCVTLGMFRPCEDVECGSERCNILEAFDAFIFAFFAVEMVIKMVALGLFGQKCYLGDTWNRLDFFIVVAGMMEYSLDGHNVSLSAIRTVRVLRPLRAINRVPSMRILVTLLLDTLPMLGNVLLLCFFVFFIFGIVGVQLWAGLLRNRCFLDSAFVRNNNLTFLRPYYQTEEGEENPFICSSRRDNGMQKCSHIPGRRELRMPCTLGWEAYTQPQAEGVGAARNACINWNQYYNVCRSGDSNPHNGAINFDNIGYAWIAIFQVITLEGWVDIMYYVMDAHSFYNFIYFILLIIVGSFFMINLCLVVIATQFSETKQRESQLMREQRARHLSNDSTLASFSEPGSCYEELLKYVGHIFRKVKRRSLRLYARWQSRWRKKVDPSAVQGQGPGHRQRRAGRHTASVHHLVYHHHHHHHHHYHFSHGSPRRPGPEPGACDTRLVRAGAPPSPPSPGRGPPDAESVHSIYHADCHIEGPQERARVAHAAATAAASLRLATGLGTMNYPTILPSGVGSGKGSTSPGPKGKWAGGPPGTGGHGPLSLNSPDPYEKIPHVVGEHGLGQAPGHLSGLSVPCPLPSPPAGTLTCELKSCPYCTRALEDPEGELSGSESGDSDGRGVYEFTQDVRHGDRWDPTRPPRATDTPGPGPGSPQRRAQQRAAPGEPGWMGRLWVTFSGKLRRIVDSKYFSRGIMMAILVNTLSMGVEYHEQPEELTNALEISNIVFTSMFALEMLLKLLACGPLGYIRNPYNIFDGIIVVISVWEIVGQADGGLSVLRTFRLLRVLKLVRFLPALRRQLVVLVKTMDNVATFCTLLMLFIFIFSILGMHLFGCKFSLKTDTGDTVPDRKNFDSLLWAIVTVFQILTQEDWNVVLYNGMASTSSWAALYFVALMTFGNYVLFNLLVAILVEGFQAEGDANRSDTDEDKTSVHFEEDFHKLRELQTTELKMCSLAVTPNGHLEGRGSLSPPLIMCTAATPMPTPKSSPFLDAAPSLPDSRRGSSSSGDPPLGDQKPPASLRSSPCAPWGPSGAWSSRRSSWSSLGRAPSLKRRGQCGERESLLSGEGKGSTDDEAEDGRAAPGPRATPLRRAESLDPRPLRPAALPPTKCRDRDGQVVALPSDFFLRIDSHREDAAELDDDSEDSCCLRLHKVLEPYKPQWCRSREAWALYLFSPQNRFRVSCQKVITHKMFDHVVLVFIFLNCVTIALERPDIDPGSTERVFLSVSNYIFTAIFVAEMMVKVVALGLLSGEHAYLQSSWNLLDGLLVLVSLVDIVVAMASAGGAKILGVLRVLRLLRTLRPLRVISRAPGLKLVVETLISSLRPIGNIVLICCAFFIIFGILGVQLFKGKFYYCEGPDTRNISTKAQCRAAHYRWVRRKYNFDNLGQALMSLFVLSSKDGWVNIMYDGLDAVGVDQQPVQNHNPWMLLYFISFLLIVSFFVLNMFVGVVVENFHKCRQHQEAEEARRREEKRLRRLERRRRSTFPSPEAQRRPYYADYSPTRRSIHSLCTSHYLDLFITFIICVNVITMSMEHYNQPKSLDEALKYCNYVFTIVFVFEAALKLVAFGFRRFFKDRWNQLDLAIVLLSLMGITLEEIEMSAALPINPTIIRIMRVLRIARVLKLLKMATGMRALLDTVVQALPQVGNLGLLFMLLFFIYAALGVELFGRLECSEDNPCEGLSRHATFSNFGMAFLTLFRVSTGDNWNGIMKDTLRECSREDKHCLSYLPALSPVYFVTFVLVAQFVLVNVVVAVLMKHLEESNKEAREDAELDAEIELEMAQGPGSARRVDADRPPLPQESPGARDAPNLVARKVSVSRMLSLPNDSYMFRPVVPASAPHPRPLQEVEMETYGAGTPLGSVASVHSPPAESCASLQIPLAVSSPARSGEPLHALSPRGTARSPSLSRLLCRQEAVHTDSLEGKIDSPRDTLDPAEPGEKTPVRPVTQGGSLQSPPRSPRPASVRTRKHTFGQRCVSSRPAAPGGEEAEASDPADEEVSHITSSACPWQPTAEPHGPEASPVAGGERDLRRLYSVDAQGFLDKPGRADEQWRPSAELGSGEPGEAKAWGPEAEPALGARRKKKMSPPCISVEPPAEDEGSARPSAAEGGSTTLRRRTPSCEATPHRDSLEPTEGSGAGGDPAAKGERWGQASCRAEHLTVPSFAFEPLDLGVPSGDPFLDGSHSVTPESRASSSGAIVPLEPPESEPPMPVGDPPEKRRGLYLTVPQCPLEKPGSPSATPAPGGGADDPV

As usually defined, the EC50 is the concentration at which the effect is half-maximal. With `COc1ccc(-c2nnc(-c3ccc(N(C)C)cc3)o2)cc1`, the EC50 in [1] and in assay [2] was > 91.2 µM (inactive) throughout.

For the compound `O=C(C[C@H]1CC[C@@H]2[C@H](COC[C@H](O)CN2Cc2ccc(Oc3ccccc3)cc2)O1)N1CCc2ccccc2C1`, the values for the AbsAC35 in assay [3] and in assay [4] were 121.3 µM and 66.11 µM, respectively.

`COCC(C)NC(=O)c1cc2cccc([N+](=O)[O-])c2[nH]1` (centres undefined): the IC50 in [5], in assay [6] and in [7] was > 59.6 µM (inactive) in each case.

For orientation: AC50 means the midpoint of the concentration-response curve, whichever way the signal moves. On to `COc1ccc(C(c2nnnn2C2CCCC2)N2CCc3ccccc3C2)cc1OC` (centres undefined), for which, in [8], the concentration at half-maximal activity (AC50) was 132 µM (active). The EC50 in [9] is 5.07 µM (active).

One may read the CC50 as the concentration at which the toxic effect on the cells reaches its halfway point. In the case of `Nc1nc(S)c2[nH]c(S)nc2n1`, the IC50 in [10] is 112 µM (active). Also, the CC50 in assay [11] was 100 µM (active).

Take `Cc1cccc[n+]1CC(=O)/C=C1\N(C)c2ccccc2C1(C)C`: the IC50 in assay [12] was 24.1 µM (inactive).

`CC(=O)c1sc(Nc2nc3cc4c(cc3s2)OCO4)nc1C`: the figures for the IC50 in [13] and in [14] were 11.1 µM (active) and > 66.6 µM (inactive), respectively.

(Values after ChEMBL document CHEMBL1201862, “PubChem BioAssay data set” (2004).)
